Active and inactive are the calls of the source. The calls are words filed in the database; no cut-off is given here.
How the values were obtained:
[1] = target: Aldo-keto reductase family 1 member B1 (Homo sapiens, UniProt P15121); assay: Inhibition of aldose reductase (aldo-keto reductase, AKR1B1) isolated from human placenta.
[2] = tested on: aldose reductase (Rattus norvegicus); assay: In vivo inhibition of sorbitol accumulation in the rat following 10 mg/kg p.o. administration; Not significant.; details: at 10 mg/kg
Rattus norvegicus [3] = species: Rattus norvegicus; assay: animal or person; assay type: functional; details: dose 25 mg/kg, route oral
Description: Compound was evaluated in vivo for the inhibition of sorbitol accumulation administered orally at a dose of 25 mg/kg.

[4] = tested on: aldose reductase (Rattus norvegicus); assay: In vivo inhibition of sorbitol accumulation in the rat following 10 mg/kg p.o. administration.; details: at 10 mg/kg
Rattus norvegicus [5] = species: Rattus norvegicus; details: at 25 mg/kg

| SMILES | IC50 [1] | other results |
| --- | --- | --- |
| O=C(O)Cc1nn(CSc2nc3ccccc3s2)c(=O)c2ccccc12 | 0.081 µM | – |
| Cc1cccc2c(CC(=O)O)nn(Cc3nc4ccccc4s3)c(=O)c12 | 0.42 µM | inhibition [2]: inactive |
| O=C(O)Cc1nn(Cc2nc3cccnc3s2)c(=O)c2ccccc12 | 0.01 µM | inhibition in vivo at 25 mg/kg (Rattus norvegicus [3]): 83% |
| O=C(O)Cc1nn(Cc2nc3cc(C(F)(F)F)cc(Cl)c3s2)c(=O)c2ccccc12 | 0.094 µM | inhibition [4]: 26% |
| O=C(O)Cc1nn(Cc2nc3ccc(Br)cc3s2)c(=O)c2ccccc12 | 0.026 µM | – |
| O=C(O)Cc1nn(Cc2nc3ccc(C(F)(F)F)cc3s2)c(=O)c2ccccc12 | 0.07 µM | inhibition [4]: 65% |
| Cc1ccc2c(=O)n(Cc3nc4ccccc4s3)nc(CC(=O)O)c2c1 | 0.027 µM | – |
| O=C(O)Cc1nn(-c2nc3ccccc3s2)c(=O)c2ccccc12 | > 1 µM | – |
| O=C(O)Cc1nn(Cc2nc3ccccc3s2)c(=O)c2cc(C(F)(F)F)ccc12 | 0.012 µM | inhibition [2]: inactive |
| O=C(O)Cc1nn(Cc2nc3cc(F)c(F)cc3s2)c(=O)c2ccccc12 | 0.068 µM | inhibition in vivo at 25 mg/kg (Rattus norvegicus [3]): 75% |
| CC(C)c1ccc2c(=O)n(Cc3nc4ccccc4s3)nc(CC(=O)O)c2c1 | 0.11 µM | – |
| O=C(O)Cc1nn(Cc2nc3cc(O)ccc3s2)c(=O)c2ccccc12 | 0.041 µM | – |
| COc1ccc2sc(Cn3nc(CC(=O)O)c4ccccc4c3=O)nc2c1 | 0.23 µM | inhibition (Rattus norvegicus [5]): inactive |
| CC(c1nc2ccccc2s1)n1nc(CC(=O)O)c2ccccc2c1=O (stereo unspecified) | 0.043 µM | inhibition in vivo at 25 mg/kg (Rattus norvegicus [3]): 50% |
| CC(c1nc2cc(C(F)(F)F)ccc2s1)n1nc(CC(=O)O)c2ccccc2c1=O (stereo unspecified) | 0.037 µM | – |
| O=C(O)Cc1nn(Cc2nc3cc(C(F)(F)F)cc(C(F)(F)F)c3s2)c(=O)c2ccccc12 | 1.4 µM | inhibition [2]: inactive |
| O=C(O)Cc1nn(Cc2nc3cc(Cl)c(Cl)cc3s2)c(=O)c2ccccc12 | 0.42 µM | inhibition in vivo at 25 mg/kg (Rattus norvegicus [3]): 34% |
| C[S+]([O-])c1ccc2sc(Cn3nc(CC(=O)O)c4ccccc4c3=O)nc2c1 (stereo unspecified) | 4.3 µM | – |
| COc1cccc2sc(Cn3nc(CC(=O)O)c4ccccc4c3=O)nc12 | 0.1 µM | inhibition (Rattus norvegicus [5]): inactive |
| O=C(O)Cc1nn(Cc2nc3cc(Cl)ccc3s2)c(=O)c2ccccc12 | 0.0071 µM | inhibition [4]: 73% |
| O=C(O)Cc1nn(Cc2nc3cc(C(F)(F)F)cc(F)c3s2)c(=O)c2ccccc12 | 0.017 µM | – |
| O=C(O)Cc1nn(Cc2nc3c(Cl)cccc3s2)c(=O)c2ccccc12 | 0.0035 µM | inhibition [4]: 63% |
| O=C(O)Cc1nn(Cc2nc3ccccc3s2)c(=O)c2cc(Cl)ccc12 | 0.015 µM | – |
| COc1cc(C(F)(F)F)c2sc(Cn3nc(CC(=O)O)c4ccccc4c3=O)nc2c1 | 0.66 µM | – |
| O=C(O)Cc1nn(Cc2nc3cc(C(F)(F)F)c(O)cc3s2)c(=O)c2ccccc12 | 0.12 µM | inhibition (Rattus norvegicus [5]): inactive |

| SMILES | IC50 [1] | other results |
| --- | --- | --- |
| Cc1cccc2c(CC(=O)O)nn(Cc3nc4c(ccc5ccccc54)s3)c(=O)c12 | 0.042 µM | inhibition [2]: inactive |
| O=C(O)Cc1nn(Cc2nc3ccccc3s2)c(=O)c2ccc(Cl)cc12 | 0.034 µM | – |
| O=C(O)Cc1nn(Cc2nc3ccccc3s2)c(=O)c2c(F)cccc12 | 0.03 µM | – |
| O=C1NC(=O)C2(CN(Cc3ccc(F)cc3)c3ccc(F)cc32)N1 (stereo unspecified) | 0.14 µM | – |
| O=C(O)Cc1nn(Cc2nc3ccc(Br)cc3s2)c(=O)c2cc(Cl)c(Cl)cc12 | 1.8 µM | – |
| CSc1ccc2sc(Cn3nc(CC(=O)O)c4ccccc4c3=O)nc2c1 | 0.06 µM | – |
| O=C(O)Cc1nn(Cc2nc3ccccc3s2)c(=O)c2cc(Br)ccc12 | 0.69 µM | inhibition [4]: 42% |
| O=C(O)Cc1nn(CCc2nc3cc(C(F)(F)F)ccc3s2)c(=O)c2ccccc12 | 0.46 µM | – |
| O=C(O)Cc1nn(Cc2nc3c(C(F)(F)F)cccc3s2)c(=O)c2ccccc12 | 0.025 µM | inhibition [4]: 61% |
| O=C(O)Cc1nn(Cc2nc3c(ccc4ccccc43)s2)c(=O)c2ccc(Cl)cc12 [listing 1 of 2 here] | 0.35 µM | – |
| COc1cc2nc(Cn3nc(CC(=O)O)c4ccccc4c3=O)sc2cc1F | 2.3 µM | inhibition (Rattus norvegicus [5]): inactive |
| CC(c1nc2cc(Cl)ccc2s1)n1nc(CC(=O)O)c2ccccc2c1=O (stereo unspecified) | 0.026 µM | inhibition [4]: 53% |
| O=C1NC(=O)C2(CN(Cc3nc4ccccc4s3)c3ccc(Cl)cc32)N1 (stereo unspecified) | 0.037 µM | – |
| O=C(O)Cc1nn(Cc2nc3c(F)c(F)ccc3s2)c(=O)c2ccccc12 | 0.01 µM | inhibition [4]: 82% |
| O=C(O)Cc1nn(Cc2nc3cc(Cl)cc(F)c3s2)c(=O)c2ccccc12 | 0.005 µM | inhibition [4]: 63% |
| COc1cc2sc(Cn3nc(CC(=O)O)c4ccccc4c3=O)nc2cc1C(F)(F)F | 4.3 µM | – |
| O=C(O)Cc1nn(Cc2nc3ccccc3s2)c(=O)c2ccc(C(F)(F)F)cc12 | 0.018 µM | inhibition [2]: inactive |
| O=C(O)Cc1nn(Cc2nc3cc(F)cc(Cl)c3s2)c(=O)c2ccccc12 | 0.0062 µM | inhibition [4]: 58% |
| O=C(O)Cc1nn(Cc2ccc(Br)cc2F)c(=O)c2ccccc12 [PONALRESTAT] | 0.021 µM | – |
| O=C(O)Cc1nn(Cc2nc3c(O)cccc3s2)c(=O)c2ccccc12 | 0.1 µM | inhibition (Rattus norvegicus [5]): inactive |
| Cc1ccc2nc(Cn3nc(CC(=O)O)c4ccccc4c3=O)sc2c1F | 0.32 µM | – |
| Cc1ccc2sc(Cn3nc(CC(=O)O)c4ccccc4c3=O)nc2c1 | 0.026 µM | inhibition (Rattus norvegicus [5]): inactive |
| CS(=O)(=O)c1ccc2sc(Cn3nc(CC(=O)O)c4ccccc4c3=O)nc2c1 | 1.7 µM | inhibition [2]: inactive |
| O=C(O)Cc1nn(Cc2nc3ccccc3s2)c(=O)c2ccc(Br)cc12 | 0.012 µM | – |
| O=C(O)Cc1nn(Cc2nc3cc(O)cc(O)c3s2)c(=O)c2ccccc12 | 0.087 µM | – |

| SMILES | IC50 [1] | other results |
| --- | --- | --- |
| O=C(O)Cc1nn(Cc2nc3cc(Cl)cc(C(F)(F)F)c3s2)c(=O)c2ccccc12 | 0.62 µM | – |
| O=C(O)Cc1nn(Cc2nc3cccc(Cl)c3s2)c(=O)c2ccccc12 | 0.001 µM | inhibition [4]: 52% |
| CN1C(C(=O)Nc2nc3ccccc3s2)=C(O)c2ccccc2S1(=O)=O | 5.5 µM | – |
| O=C(O)Cc1nn(Cc2nc3cccc(C(F)(F)F)c3s2)c(=O)c2ccccc12 | 0.01 µM | inhibition [4]: 80% |
| O=C(O)Cc1nn(Cc2nc3ccccc3s2)c(=O)c2cc([N+](=O)[O-])ccc12 | 0.033 µM | – |
| O=C(O)Cc1nn(Cc2nc3ccc(O)cc3s2)c(=O)c2ccccc12 | 1 µM | – |
| O=C(O)Cc1nn(Cc2nc3c(F)cccc3s2)c(=O)c2ccccc12 | 0.002 µM | inhibition [2]: inactive |
| COc1cc(OC)c2sc(Cn3nc(CC(=O)O)c4ccccc4c3=O)nc2c1 | 0.7 µM | – |
| Cc1ccc2nc(Cn3nc(CC(=O)O)c4ccccc4c3=O)sc2c1 | 0.32 µM | inhibition (Rattus norvegicus [5]): inactive |
| O=C(O)Cc1nn(Cc2nc3c(ccc4ccccc43)s2)c(=O)c2ccc(Cl)cc12 [listing 2 of 2 here] | 0.3 µM | – |
| O=C(O)Cc1nn(Cc2nc3cccc(Br)c3s2)c(=O)c2ccccc12 | 0.015 µM | inhibition [4]: 71% |
| O=C(O)Cc1nn(Cc2nc3cc(Cl)c(F)cc3s2)c(=O)c2ccccc12 | 0.11 µM | – |
| COc1ccc2c(CC(=O)O)nn(Cc3nc4ccccc4s3)c(=O)c2c1 | 0.026 µM | inhibition [2]: inactive |
| O=C(O)Cc1nn(Cc2cccc(-c3nc4ccccc4s3)c2)c(=O)c2ccccc12 | 5.7 µM | – |
| O=C(O)Cc1nn(Cc2nc3ccccc3s2)c(=O)c2cc(Cl)c(Cl)cc12 | 0.01 µM | – |
| O=C(O)Cc1nn(Cc2nc3c(Cl)c(Cl)ccc3s2)c(=O)c2ccccc12 | 0.1 µM | – |
| O=C(O)Cc1nn(Cc2nc3c(F)ccc(F)c3s2)c(=O)c2ccccc12 | 0.005 µM | inhibition [4]: 73% |
| O=C(O)Cc1nn(Cc2nc3c(ccc4ccccc43)s2)c(=O)c2ccccc12 | 0.51 µM | inhibition (Rattus norvegicus [5]): inactive |
| COc1ccc2c(=O)n(Cc3nc4ccccc4s3)nc(CC(=O)O)c2c1 | 0.028 µM | – |
| COc1ccc2nc(Cn3nc(CC(=O)O)c4ccccc4c3=O)sc2c1 | 4.2 µM | – |
| O=C(O)Cc1nn(Cc2nc3cc(F)cc(C(F)(F)F)c3s2)c(=O)c2ccccc12 | 0.1 µM | inhibition [2]: inactive |
| O=C(O)Cc1nn(Cc2ccc(-c3nc4ccccc4s3)cc2)c(=O)c2ccccc12 | > 1 µM | – |
| O=C(O)Cc1nn(Cc2nc3ccccc3s2)c(=O)c2ccc([N+](=O)[O-])cc12 | 0.046 µM | inhibition [2]: inactive |
| CC(C)c1ccc2nc(Cn3nc(CC(=O)O)c4ccccc4c3=O)sc2c1 | 3.2 µM | – |
| O=C(O)Cc1nn(Cc2nc3c(Cl)cc(Cl)cc3s2)c(=O)c2ccccc12 | 0.17 µM | – |
